One series deals with human UGTs. As to the kind of experiment: Recombinant human UGT screen: glucuronidation rates across human UGTs. It counts as biochemical. To be noted: 10 μM aglycone. The procedure:
Recombinant human UGTs 1A1, 1A3, 1A6, 1A7, 1A8, 1A9, 1A10, 2A1, 2A2, 2A3, 2B4, 2B10, 2B7, and 2B17 were produced, as His-tagged proteins, in baculovirus-infected insect cells as previously described.[37]−[39] The relative expression level of each of these recombinant UGTs was evaluated by immunodetection, using monoclonal antibody against the His-tag, as described elsewhere.[40] A numeric value of 1.0 was given to the expression level of UGT1A8 and the relative expression level of each of the other UGTs was related to this value. Normalized activities were obtained by dividing the glucuronidation rate values by the relative expression level of the tested UGT. In addition, UGTs 1A4, 2B10, and 2B15 were purchased from Corning Life Sciences (New York) and are marked, in Figure 5, with a “C” to indicate that they are commercial enzymes. The expression levels of the UGTs in the commercial samples could not be determined, so their protein concentration was used to calculate the reaction rate.
(§1) The incubation mixtures for glucuronidation assays contained 100 mM Tris-HCl buffer pH 7.4, 2.5 mM MgCl2, 0.5 mM UDPGA, recombinant UGT, or microsomes as the enzyme source and 0–15 μM of the test aglycone substrate. When the incubation mixtures contained microsomes, alamethicin was used at a final concentration of 12.5 μg/mL, but it was not included in the recombinant enzyme assays.[43] In the first experiments three negative control samples were tested, namely (i) without the substrate 7-hydroxycoumarin derivative, (ii) without the cofactor UDPGA, or (iii) without the enzyme source. In subsequent experiments, the control samples lacked the enzyme source since it gave the highest fluorescence background. Preliminary experiments were done under different conditions than most of the later assays, namely in 2.5 mL of 100 mM phosphate buffer pH 7.4, containing 500 μg pig liver microsomes, 1.0 μM compound 6 and 0.5 mM UDPGA, at room temperature. Fluorescence spectra (excitation 200–420 nm; emission 400–600 nm) or fluorescence decrease at 390 nm excitation and 460 nm emission, were measured in these preliminary experiments, using a Shimadzu RF-5000 spectrophotofluorometer.
(§2) Most of the glucuronidation assays were carried out in 96 multiwell plate format, and incubations were carried out in 100 μL and at 37 °C, in the presence of Tris–HCl buffer pH 7.4, UDPGA, and the tested 7-hydroxycoumarin derivative, at the indicated concentrations. Fluorescence decline in the multiwell plate experiments was monitored every other minute, for 40 min, using an excitation filter at 405 nm and detection at 460 nm, in a Victor2 1420 Multilabel counter (PerkinElmer, Life Sciences, Turku, Finland). The fluorescence values were transformed into molarity using the aglycone substrates for making the respective standard curves. Slopes of the substrate concentration decrease per minute were calculated using linear regression analysis, in which the linear part of the kinetic assay indicated the glucuronidation rate. Enzyme catalyzed glucuronidation rate was calculated by subtracting the blank value from the full reaction value. The intra-assay variability of the kinetic assays was 6% when compound 6 was used as the aglycone substrate. Kinetic analyses were also performed in the same 96 multiwell plates format, with excitation filter at 405 nm and detection at 460 nm, using 6–8 different substrate concentrations per substrate and two different protein concentrations for both the wild-type and mutant UGT1A10. The higher concentrations, 13.5 mg/L for UGT1A10 and 12.0 mg/L for the UGT1A10 mutant, were used when the substrates were HFC, compounds 4 and 6, whereas the lower protein concentrations, 6.75 and 6.0 mg/L for UGT1A10 and the mutant, respectively, were used when the substrates were compounds 1, 2, 3, and 5.

Series [1] concerns human intestinal microsomes (HIM). As to the kind of experiment: Glucuronidation by human intestinal microsomes (HIM). It counts as in vitro ADME. Particulars: 10 μM aglycone. The procedure:
A commercial HLM pool (cat no:452210, BD Gentest, Bedford, MA) and human intestine microsomes (HIM) pool (lot. no 1110189, XenoTech, Kansas City, KS) were purchased. Pig liver samples were prepared from untreated female pigs that were used for practicing surgical procedures at the University of Kuopio (currently: University of Eastern Finland, Kuopio campus). Other animal liver microsomes were prepared as described previously.[41] The Ethics Committee for Animal Experiments, University of Kuopio, approved these experiments.
as §1, §2

Series [2] in a line: Absorbance spectra of coumarin derivatives. Particulars: 10 μM, 100 mM Tris–HCl pH 7.4, 10% dimethyl sulfoxide. It counts as physicochemical. The procedure: The absorbance spectra of 10 μM coumarin derivatives at 100 mM Tris–HCl pH 7.4 containing 10% dimethyl sulfoxide were measured using a Hitachi U-2000 Spectrophotometer (Tokyo, Japan). Excitation and emission fluorescence spectra of 0.1 μM coumarin derivatives in 100 mM Tris-HCl pH 7.4 were measured using a Shimadzu RF-5000 spectrophotofluorometer (Tokyo, Japan). The excitation spectra was from 200 to 420 at 460 nm emission and the emission spectra was from 400 to 600 at 390 nm excitation (data in Supplementary Table S1 and Figures S1 and S2). The effect of pH on fluorescence intensity was determined at 405 nm excitation and 460 nm emission, in the presence of 1.5% trichloroacetic acid, 100 mM phosphate buffers at pH 5, 6, 7, 8, and 9, or 1.6 M glycine–NaOH pH 10.4.

The nature of series [3]: Excitation and emission fluorescence spectra of coumarin derivatives. It counts as physicochemical. Also noted: dose or concentration left out as unconfirmed. The method, then:
The absorbance spectra of 10 μM coumarin derivatives at 100 mM Tris–HCl pH 7.4 containing 10% dimethyl sulfoxide were measured using a Hitachi U-2000 Spectrophotometer (Tokyo, Japan). […] The excitation spectra was from 200 to 420 at 460 nm emission and the emission spectra was from 400 to 600 at 390 nm excitation (data in Supplementary Table S1 and Figures S1 and S2). The effect of pH on fluorescence intensity was determined at 405 nm excitation and 460 nm emission, in the presence of 1.5% trichloroacetic acid, 100 mM phosphate buffers at pH 5, 6, 7, 8, and 9, or 1.6 M glycine–NaOH pH 10.4.

As to `O=c1ccc2ccc(O)cc2o1` [7-hydroxycoumarin, reference compound], in the series on human UGTs (control substrates), the “UGT(s) that primarily glucuronidate the substrate” value was “UGT1A6”. For the same compound, the “Glucuronidation rate, HLM compared with HIM (in words)” value in series [1] is “much higher rates by HLM than by HIM”.

Consider `Cc1ccc(-c2cc3ccc(O)cc3oc2=O)cc1` [Compound 5, 7-Hydroxy-3-(p-tolyl)-2H-chromen-2-one], for which, in the series on human UGTs (other UGTs at very low rates), the “Selectivity among human UGTs” value is listed as “selective for UGT1A10”. In series [2], this compound returned an Amax of 347 nm and a ε abs of 19500 M⁻¹ cm⁻¹. Besides, in series [3], the “Fluorescence EMmax” value is on record as 462 nm and the “Fluorescence EXmax” value was determined as 358 nm.

The record behind these values is article PMC6150735, “Molecular Docking-Based Design and Development of a Highly Selective Probe Substrate for UDP-glucuronosyltransferase 1A10” (Molecular Pharmaceutics, 2018).
